Measurements published in patent US9062041B2 (Bayer Intellectual Property GmbH, priority 2011, dated 2015).

Tests used:
Type in all cases: cell-based
[1] = target: EP4 subtype of the human PGE2 receptor (Homo sapiens, UniProt P35408); experiment: cAMP antagonism test on the human EP4 receptor (HTRF cAMP detection); conditions: selectivity towards hEP4, IC50 measured by cAMP antagonism test
Method in brief: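 Cells expressing human EP4 preincubated 20 min at RT with compound (0.8 nM–16.5 μM), then stimulated with PGE2 (0.3 nM in 3× solution, with IBMX) 60 min at RT. After lysis, cAMP measured by HTRF competition (665/620 nm ratio); antagonism seen as rise in FRET signal.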

[2] = target: T1, human PGD receptor (Homo sapiens, UniProt Q13258); experiment: cAMP antagonism test on the human prostaglandin D receptor (HTRF cAMP detection); conditions: selectivity towards hDP, IC50 measured by cAMP antagonism test
T1 sequence (Q13258 1-359): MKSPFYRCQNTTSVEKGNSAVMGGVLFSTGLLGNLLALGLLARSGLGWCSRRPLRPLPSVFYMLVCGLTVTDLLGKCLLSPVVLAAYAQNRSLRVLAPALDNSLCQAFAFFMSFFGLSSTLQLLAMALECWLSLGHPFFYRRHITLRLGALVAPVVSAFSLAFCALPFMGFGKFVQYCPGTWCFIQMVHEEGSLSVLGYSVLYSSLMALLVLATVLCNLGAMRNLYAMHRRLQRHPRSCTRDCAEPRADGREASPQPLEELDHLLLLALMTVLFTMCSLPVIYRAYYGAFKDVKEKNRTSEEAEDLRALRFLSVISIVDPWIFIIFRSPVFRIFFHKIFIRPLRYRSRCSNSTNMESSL
Method in brief: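 Cells pre-mixed with cAMP-d2 were preincubated with compound (0.8 nM–16.5 μM) for 20 min at RT, then stimulated with 3× PGD2 solution (6 nM, in PBS-IBMX) for 30 min at RT. After lysis (20 min), HTRF read at 665/620 nm; antagonism seen as rise in FRET ratio.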

[3] = target: EP2 subtype of the human PGE2 receptor (Homo sapiens, UniProt P43116); experiment: cAMP antagonism test on the human EP2 receptor (HTRF cAMP detection); conditions: hEP2 receptor, read-out: Antagonism hEP2 IC50
Method in brief: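 Cells expressing human EP2 preincubated 20 min at RT with compound (0.8 nM–16.5 μM), then stimulated 60 min with PGE2 (3× solution 1.5 nM) in PBS-IBMX. After 20 min lysis, cAMP measured by competitive HTRF with cAMP-d2 and Eu cryptate anti-cAMP antibody (665/620 nm ratio).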

Chain of EP2 subtype of the human PGE2 receptor (P43116 whole entry): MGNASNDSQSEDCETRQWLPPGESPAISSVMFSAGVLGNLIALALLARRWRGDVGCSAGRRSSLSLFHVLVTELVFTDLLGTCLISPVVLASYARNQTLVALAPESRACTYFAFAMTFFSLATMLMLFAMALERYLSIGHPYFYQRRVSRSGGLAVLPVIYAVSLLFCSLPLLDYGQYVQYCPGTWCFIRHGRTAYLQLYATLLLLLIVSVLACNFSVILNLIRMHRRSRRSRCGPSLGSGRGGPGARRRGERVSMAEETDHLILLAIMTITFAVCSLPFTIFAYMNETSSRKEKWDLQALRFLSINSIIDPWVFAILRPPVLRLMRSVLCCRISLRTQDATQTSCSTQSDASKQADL
Chain of EP4 subtype of the human PGE2 receptor (P35408 whole entry): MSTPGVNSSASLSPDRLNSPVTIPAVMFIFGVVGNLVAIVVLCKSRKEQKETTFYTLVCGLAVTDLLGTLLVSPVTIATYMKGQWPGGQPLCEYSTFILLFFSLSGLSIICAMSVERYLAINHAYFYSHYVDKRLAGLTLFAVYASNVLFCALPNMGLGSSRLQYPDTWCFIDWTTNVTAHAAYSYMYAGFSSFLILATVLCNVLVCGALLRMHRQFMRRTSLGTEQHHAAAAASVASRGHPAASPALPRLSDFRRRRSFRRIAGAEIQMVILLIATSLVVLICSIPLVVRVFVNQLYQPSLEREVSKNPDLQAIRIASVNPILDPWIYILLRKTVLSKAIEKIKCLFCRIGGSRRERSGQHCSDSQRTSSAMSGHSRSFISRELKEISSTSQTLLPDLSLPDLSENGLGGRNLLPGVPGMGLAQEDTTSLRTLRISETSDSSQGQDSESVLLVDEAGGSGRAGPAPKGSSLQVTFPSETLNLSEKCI

| Structure (SMILES) | Selectivity hEP2/hEP4 [1] | Selectivity hEP2/hDP [2] | IC50 [3] [µM] |
| --- | --- | --- | --- |
| COCCNC(=O)c1ccc2nn(CC3CCN(C(=O)c4ccc(-c5cccc(OC)n5)cc4)CC3)cc2c1C [Example 378, N-(2-methoxyethyl)-2-({1-[4-(6-methoxypyridin-2-yl)benzoyl]piperidin-4-yl}methyl)-4-methyl-2H-indazol-5-carboxamide] | xxx (xxx > 100) | xxx (xxx > 100) | 0.00777 |
| COCCNC(=O)c1ccc2nn(CC3CCN(C(=O)c4ccc(Oc5ccccn5)cc4)CC3)cc2c1C [Example 346, N-(2-methoxyethyl)-4-methyl-2-({1-[4-(2-pyridyloxy)benzoyl]piperidin-4-yl}-methyl)-2H-indazol-5-carboxamide] | xxx (xxx > 100) | xxx (xxx > 100) | 0.0149 |
| Cc1c(C(=O)NCC(F)(F)F)ccc2nn(CC3CCN(C(=O)c4ccc(Cl)cc4)CC3)cc12 [Example 72, 2-{[1-(4-chlorobenzoyl)piperidin-4-yl]methyl}-4-methyl-N-(2,2,2-trifluoroethyl)-2H-indazol-5-carboxamide] | xxx (xxx > 100) | xxx (xxx > 100) | 0.12 |
| COCCNC(=O)c1ccc2nn(CC3CCN(C(=O)c4nc5ccccc5s4)CC3)cc2c1C [Example 348, 2-{[1-(benzothiazol-2-ylcarbonyl)piperidin-4-yl]methyl}-N-(2-methoxyethyl)-4-methyl-2H-indazol-5-carboxamide] | xxx (xxx > 100) | xxx (xxx > 100) | 0.00888 |
| COCCNC(=O)c1ccc2nn(CC3CN(C(=O)c4ccc(Oc5ccc(C(F)(F)F)cc5)cc4)C3)cc2c1C [Example 125, N-(2-methoxyethyl)-4-methyl-2-[(1-{4-[4-(trifluoromethyl)phenoxy]benzoyl}azetidin-3-yl)methyl]-2H-indazol-5-carboxamide] | xxx (xxx > 100) | xxx (xxx > 100) | 0.00366 |
| COCCNC(=O)c1ccc2nn(CC3CCN(C(=O)c4ccc(Br)cc4)CC3)cc2c1C [Example 54, 2-{[1-(4-bromo-benzoyl)piperidin-4-yl]methyl}-N-(2-methoxyethyl)-4-methyl-2H-indazol-5-carboxamide] | xxx (xxx > 100) | xxx (xxx > 100) | 0.00474 |
| Cc1c(C(=O)NCC(F)(F)F)ccc2nn(CC3CCN(C(=O)c4ccc(Br)cc4)CC3)cc12 [Example 316, 2-{[1-(4-bromobenzoyl)piperidin-4-yl]methyl}-4-methyl-N-(2,2,2-trifluoro-ethyl)-2H-indazol-5-carboxamide] | xxx (xxx > 100) | xxx (xxx > 100) | 0.079 |
| COCCNC(=O)c1ccc2nn(CC3CCN(C(=O)c4ccc(-n5ccnc5)cc4)CC3)cc2c1C [Example 34, 2-({1-[4-(1H-imidazol-1-yl)-benzoyl]piperidin-4-yl}methyl)-N-(2-methoxyethyl)-4-methyl-2H-indazol-5-carboxamide] | xxx (xxx > 100) | xxx (xxx > 100) | 0.134 |
| COCCNC(=O)c1ccc2nn(CC3CCN(C(=O)c4ccc(C5CCCCC5)cc4)CC3)cc2c1C [Example 335, 2-{[1-(4-cyclohexylbenzoyl)piperidin-4-yl]methyl}-N-(2-methoxyethyl)-4-methyl-2H-indazol-5-carboxamide] | xxx (xxx > 100) | xxx (xxx > 100) | 0.00509 |
| Cc1c(C(=O)NCC(F)(F)F)ccc2nn(CC3CCN(C(=O)c4cnc(-c5ccccc5)s4)CC3)cc12 [Example 298, 4-methyl-2-({1-[(2-phenylthiazol-5-yl)carbonyl]piperidin-4-yl}methyl)-N-(2,2,2-trifluoroethyl)-2H-indazol-5-carboxamide] | xx (xx: 10-100) | xx (xx: 10-100) | 0.345 |
| Cc1c(C(=O)NCCN2CCOCC2)ccc2nn(CC3CCN(C(=O)c4cccc(S(F)(F)(F)(F)F)c4)CC3)cc12 [Example 64] | x (x: 1-10) | x (x: 1-10) | 4.13 |
| COCCNC(=O)c1ccc2nn(CC3CCN(C(=O)c4ccc(Cl)cc4)CC3)cc2c1OCC(F)(F)F [Example 232, 2-{[1-(4-chlorobenzoyl)piperidin-4-yl]methyl}-N-(2-methoxyethyl)-4-(2,2,2-trifluoroethoxy)-2H-indazol-5-carboxamide] | xxx (xxx > 100) | xxx (xxx > 100) | 0.0383 |
| Cc1c(C(=O)NCC(F)(F)F)ccc2nn(CC3CCN(C(=O)c4cc5cc(F)ccc5n4C)CC3)cc12 [Example 292, 2-({1-[(5-fluoro-1-methyl-1H-indol-2-yl)carbonyl]piperidin-4-yl}methyl)-4-methyl-N-(2,2,2-trifluoroethyl)-2H-indazol-5-carboxamide] | xxx (xxx > 100) | xxx (xxx > 100) | 0.02 |
| Cc1c(C(=O)NCCN2CCOCC2)ccc2nn(CC3CN(C(=O)c4ccc(Cl)cc4)C3)cc12 [Example 128, 2-{[1-(4-chlorobenzoyl)azetidin-3-yl]methyl}-4-methyl-N-(2-morpholinoethyl)-2H-indazol-5-carboxamide] | xx (xx: 10-100) | xx (xx: 10-100) | 0.471 |
| Cc1c(C(=O)NCC(F)(F)F)ccc2nn(CC3CCN(C(=O)c4ccc(SC(F)(F)F)cc4)CC3)cc12 [Example 288, 4-methyl-N-(2,2,2-trifluoroethyl)-2-[(1-{4-[(trifluoromethyl)sulphanyl]benzoyl}-piperidin-4-yl)methyl]-2H-indazol-5-carboxamide] | xxx (xxx > 100) | xxx (xxx > 100) | 0.04 |
| Cc1c(C(=O)NCCOC(F)(F)F)ccc2nn(CC3CN(C(=O)c4ccc(Cl)cc4)C3)cc12 [Example 152, 2-{[1-(4-chlorobenzoyl)azetidin-3-yl]methyl}-4-methyl-N-[2-(trifluoromethoxy)ethyl]-2H-indazol-5-carboxamide] | xxx (xxx > 100) | xxx (xxx > 100) | 0.0333 |
| Cc1cc2nn(CC3CN(C(=O)c4ccc(Cl)cc4)C3)cc2cc1C(=O)NCCOC(F)(F)F [Example 197, 2-{[1-(4-chlorobenzoyl)azetidin-3-yl]methyl}-6-methyl-N-[2-(trifluoromethoxy)ethyl]-2H-indazol-5-carboxamide] | xxx (xxx > 100) | xxx (xxx > 100) | 0.0632 |
| Cc1c(C(=O)NCCOC(F)(F)F)ccc2nn(CC3CCN(C(=O)c4ccc(Cl)cc4)CC3)cc12 [Example 107, 2-{[1-(4-chlorobenzoyl)piperidin-4-yl]methyl}-4-methyl-N-[2-(trifluoromethoxy)ethyl]-2H-indazol-5-carboxamide] | xxx (xxx > 100) | xxx (xxx > 100) | 0.0114 |
| Cc1cc2nn(CC3CCN(C(=O)c4ccc(-c5ccc(F)cc5)cc4)CC3)cc2cc1C(=O)NCCN1CCOCC1 [Example 83, 2-({l-[(4′-fluoro-biphenyl-4-yl)-carbonyl]piperidin-4-yl}methyl)-6-methyl-N-(2-morpholino-ethyl)-2H-indazol-5-carboxamide] | xxx (xxx > 100) | xxx (xxx > 100) | 0.0326 |
| Cc1c(C(=O)NCC2COCCO2)ccc2nn(CC3CCN(C(=O)c4ccc(-c5ccc(F)cc5)cc4)CC3)cc12 (racemic) [Example 411, (+/−)-N-(1,4-dioxan-2-ylmethyl)-2-({1-[(4′-fluorobiphenyl-4-yl)carbonyl]-piperidin-4-yl}methyl)-4-methyl-2H-indazol-5-carboxamide] | xxx (xxx > 100) | xxx (xxx > 100) | 0.0165 |
| Cc1c(C(=O)NCCC(C)(C)O)ccc2nn(CC3CCN(C(=O)c4ccc(Cl)cc4)CC3)cc12 [Example 399, 2-{[1-(4-chlorobenzoyl)piperidin-4-yl]methyl}-N-(3-hydroxy-3-methylbutyl)-4-methyl-2H-indazol-5-carboxamide] | xx (xx: 10-100) | xx (xx: 10-100) | 0.593 |
| Cc1c(C(=O)NCCOCC2CC2)ccc2nn(CC3CCN(C(=O)c4ccc(C5CC5)cc4)CC3)cc12 [Example 89, 2-{[1-(4-cyclopropyl-benzoyl)piperidin-4-yl]methyl}-N-[2-(cyclopropylmethoxy)ethyl]-4-methyl-2H-indazol-5-carboxamide] | xxx (xxx > 100) | xxx (xxx > 100) | 0.0094 |
